Where two headings read alike, the source gives them in different places. *1 amine or outer side, *2 acyl side, *3 side chain or, on linkers, in order; H or OH if unused. Where a SMILES comes first, the peptide text is derived from it. Side-chain parts run from the residue outwards. [ ]: non-standard residue; d: D form. The star is where a group is joined. C18 diacid = O=C(O)CCCCCCCCCCCCCCCCC(=O)*; γGlu = O=C(O)[C@H](CCC(=O)[*:2])N[*:1]; Dap = NC[C@H](N)C(=O)O; AEEA = NCCOCCOCC(=O)O; Aib = CC(C)(N)C(=O)O
What was measured:
human GLP-1 R = biological target: T1, human GLP-1 R (Homo sapiens, UniProt P43220); assay: Human GLP-1 receptor (GLP-1 R) activity assay, cAMP induction (AlphaScreen) in HEK293 cells; assay type: cell-based; settings: read-out: hGLP1-R cAMP EC50 average value
T1 construct: expressed in transfected cells
Protocol: (§1) Human GIP Receptor (GIP R) and GLP-1 Receptor (GLP-1 R) Activity Assay
(§2) In vitro effects of peptide conjugates of the invention were assessed by measuring the induction of cAMP following stimulation of the respective receptor by GIP, GLP1 or analogues of these, as outlined in the invention, using the AlphaSceen® cAMP kit from Perkin-Elmer according to instructions. Briefly, HEK293 cells expressing the human GIP R or GLP-1 R (stable cell lines generated through transfection of the cDNA for human GIP R or GLP-1 and selection of stable clones) were seeded at 30,000 cells/well in 96-well microtiter plates coated with 0.01% poly-L-lysine, and grown for 1 day in culture in 200 μl growth medium (DMEM, 10% FCS, Penicillin (100 IU/ml), Streptomycin (100 μg/ml)). On the day of analysis, growth medium was removed and the cells were washed once with […] Tyrode's buffer (Tyrode's Salts (9.6 g/l), 10 mM HEPES, pH 7.4). […] The Assay buffer was removed and cells are lysed in 80 μl Lysis buffer (0.1% w/v BSA, 5 mM HEPES, 0.3% v/v Tween-20) per well. From each well 10 μl lysed cells was transferred to a 384-well plate and mixed with 15 μl bead-mix (1 Unit/15 μl anti-cAMP Acceptor Beads, 1 Unit/15 μl Donor Beads, and 1 Unit/15 μl Biotinylated cAMP in Assay Buffer). The plates were mixed and incubated in the dark for an hour at room temperature before measuring using an Envision™ plate reader (Perkin-Elmer).
(§3) The resulting cAMP curves were plotted as absolute cAMP concentrations (nM) over log (test compound concentration) and analyzed using the curve fitting program XLfit.
(§4) Parameters calculated to describe both the potency as well as the agonistic activity of each test compound on the receptors were:
(§5) EC50, a concentration resulting in a half-maximal elevation of cAMP levels, reflecting the potency of the test compound.

human GIP R = biological target: T2, human GIP R (Homo sapiens, UniProt P48546); assay: Human GIP receptor (GIP R) activity assay, cAMP induction (AlphaScreen) in HEK293 cells; assay type: cell-based; settings: read-out: hGIP-R cAMP EC50 average value
T2 construct: expressed in transfected cells
T2 sequence (P48546 22-466): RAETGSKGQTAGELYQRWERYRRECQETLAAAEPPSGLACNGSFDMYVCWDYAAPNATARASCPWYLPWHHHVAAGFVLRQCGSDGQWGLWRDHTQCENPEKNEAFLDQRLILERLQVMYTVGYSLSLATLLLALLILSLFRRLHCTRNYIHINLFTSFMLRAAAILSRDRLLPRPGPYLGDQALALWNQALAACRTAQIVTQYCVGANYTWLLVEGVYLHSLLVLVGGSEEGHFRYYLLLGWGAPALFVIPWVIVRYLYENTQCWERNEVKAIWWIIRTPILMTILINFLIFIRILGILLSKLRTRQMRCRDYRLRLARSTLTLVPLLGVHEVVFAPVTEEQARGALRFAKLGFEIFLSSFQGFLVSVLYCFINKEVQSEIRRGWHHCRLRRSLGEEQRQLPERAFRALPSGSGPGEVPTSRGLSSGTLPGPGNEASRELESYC
Protocol: as §1, §2, §3, §4, §5

[1] = Table 2, HEK293 cells expressing human GLP-1 R
[2] = Table 2a, secondary assay study
[3] = Table 2, HEK293 cells expressing human GIP R
[4] = Table 3, most comprehensive data

T1 sequence (P43220 24-463): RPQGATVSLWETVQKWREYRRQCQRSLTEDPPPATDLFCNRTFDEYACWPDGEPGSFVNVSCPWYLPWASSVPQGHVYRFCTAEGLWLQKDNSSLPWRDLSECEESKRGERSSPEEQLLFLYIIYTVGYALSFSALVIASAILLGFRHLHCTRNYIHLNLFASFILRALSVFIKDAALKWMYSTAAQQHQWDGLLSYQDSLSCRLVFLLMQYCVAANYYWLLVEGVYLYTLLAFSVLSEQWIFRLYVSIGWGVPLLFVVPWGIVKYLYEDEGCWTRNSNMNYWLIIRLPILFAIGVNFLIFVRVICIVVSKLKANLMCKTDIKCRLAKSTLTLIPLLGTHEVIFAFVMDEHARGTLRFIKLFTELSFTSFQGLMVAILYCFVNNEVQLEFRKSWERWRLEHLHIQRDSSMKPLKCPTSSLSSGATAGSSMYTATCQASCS

SMILES | EC50 (human GLP-1 R; [1]) | EC50 (human GLP-1 R; [2]) | EC50 (human GIP R; [3]) | EC50 (human GIP R; [2]) | EC50 (human GIP R; [4])
CC[C@H](C)[C@H](NC(=O)[C@H](CO)NC(=O)[C@H](Cc1ccc(O)cc1)NC(=O)[C@H](CC(=O)O)NC(=O)[C@H](CO)NC(=O)[C@@H](NC(=O)[C@H](Cc1ccccc1)NC(=O)[C@@H](NC(=O)CNC(=O)[C@H](CCC(=O)O)NC(=O)C(C)(C)NC(=O)[C@@H](N)Cc1ccc(O)cc1)[C@@H](C)O)[C@@H](C)O)C(=O)N[C@@H](Cc1ccc(O)cc1)C(=O)N[C@@H](CC(C)C)C(=O)N[C@@H](CC(=O)O)C(=O)N[C@@H](CCCCN)C(=O)N[C@@H](CCCCNC(=O)COCCOCCNC(=O)COCCOCCNC(=O)CCCCCCCCCCCCCCCCC(=O)O)C(=O)N[C@@H](C)C(=O)N[C@@H](CCC(N)=O)C(=O)N[C@@H](CCCNC(=N)N)C(=O)N[C@@H](C)C(=O)N[C@@H](Cc1ccccc1)C(=O)N[C@H](C(=O)N[C@@H](CCC(=O)O)C(=O)N[C@@H](Cc1c[nH]c2ccccc12)C(=O)N[C@@H](CC(C)C)C(=O)N[C@@H](CC(C)C)C(=O)N[C@@H](C)C(=O)N[C@@H](CCC(N)=O)C(=O)NCC(=O)N1CCC[C@H]1C(=O)N[C@@H](CO)C(=O)N[C@@H](CO)C(=O)NCC(=O)N[C@@H](C)C(=O)N1CCC[C@H]1C(=O)N1CCC[C@H]1C(=O)N1CCC[C@H]1C(=O)N[C@@H](CO)C(N)=O)C(C)C [Compound 5] (H-Y[Aib]EGTFTSDYSIYLDKK([AEEA-AEEA-C18 diacid])AQRAFVEWLLAQGPSSGAPPPS-NH2) | 0.014 nM | 0.014 nM | 0.012 nM | 0.011 nM | 
CC[C@H](C)[C@H](NC(=O)[C@H](CO)NC(=O)[C@H](Cc1ccc(O)cc1)NC(=O)[C@H](CC(=O)O)NC(=O)[C@H](CO)NC(=O)[C@@H](NC(=O)[C@H](Cc1ccccc1)NC(=O)[C@@H](NC(=O)CNC(=O)[C@H](CCC(=O)O)NC(=O)C(C)(C)NC(=O)[C@@H](N)Cc1ccc(O)cc1)[C@@H](C)O)[C@@H](C)O)C(=O)N[C@@H](Cc1ccc(O)cc1)C(=O)N[C@@H](CC(C)C)C(=O)N[C@@H](CC(=O)O)C(=O)N[C@@H](CCCCN)C(=O)N[C@@H](CCCCNC(=O)COCCOCCNC(=O)COCCOCCNC(=O)COCCOCCNC(=O)CC[C@H](NC(=O)CCCCCCCCCCCCCCCCC(=O)O)C(=O)O)C(=O)N[C@@H](C)C(=O)N[C@@H](CCC(N)=O)C(=O)N[C@@H](CCCNC(=N)N)C(=O)N[C@@H](C)C(=O)N[C@@H](Cc1ccccc1)C(=O)N[C@H](C(=O)N[C@@H](CCC(=O)O)C(=O)N[C@@H](Cc1c[nH]c2ccccc12)C(=O)N[C@@H](CC(C)C)C(=O)N[C@@H](CC(C)C)C(=O)N[C@@H](C)C(=O)N[C@@H](CCC(N)=O)C(=O)NCC(=O)N1CCC[C@H]1C(=O)N[C@@H](CO)C(=O)N[C@@H](CO)C(=O)NCC(=O)N[C@@H](C)C(=O)N1CCC[C@H]1C(=O)N1CCC[C@H]1C(=O)N1CCC[C@H]1C(=O)N[C@@H](CO)C(N)=O)C(C)C [Compound 6] | 0.016 nM |  | 0.0049 nM | 0.005 nM | 0.005 nM
CC[C@H](C)[C@H](NC(=O)[C@H](CO)NC(=O)[C@H](Cc1ccc(O)cc1)NC(=O)[C@H](CC(=O)O)NC(=O)[C@H](CO)NC(=O)[C@@H](NC(=O)[C@H](Cc1ccccc1)NC(=O)[C@@H](NC(=O)CNC(=O)[C@H](CCC(=O)O)NC(=O)C(C)(C)NC(=O)[C@@H](N)Cc1ccc(O)cc1)[C@@H](C)O)[C@@H](C)O)C(=O)N[C@@H](Cc1ccc(O)cc1)C(=O)N[C@@H](CC(C)C)C(=O)N[C@@H](CC(=O)O)C(=O)N[C@@H](CCCCN)C(=O)N[C@@H](CCCCNC(=O)COCCOCCNC(=O)COCCOCCNC(=O)[C@H](CN)NC(=O)CCCCCCCCCCCCCCCCC(=O)O)C(=O)N[C@@H](C)C(=O)N[C@@H](CCC(N)=O)C(=O)N[C@@H](CCCNC(=N)N)C(=O)N[C@@H](C)C(=O)N[C@@H](Cc1ccccc1)C(=O)N[C@H](C(=O)N[C@@H](CCC(=O)O)C(=O)N[C@@H](Cc1c[nH]c2ccccc12)C(=O)N[C@@H](CC(C)C)C(=O)N[C@@H](CC(C)C)C(=O)N[C@@H](C)C(=O)N[C@@H](CCC(N)=O)C(=O)NCC(=O)N1CCC[C@H]1C(=O)N[C@@H](CO)C(=O)N[C@@H](CO)C(=O)NCC(=O)N[C@@H](C)C(=O)N1CCC[C@H]1C(=O)N1CCC[C@H]1C(=O)N1CCC[C@H]1C(=O)N[C@@H](CO)C(N)=O)C(C)C [Compound 7] (H-Y[Aib]EGTFTSDYSIYLDKK([AEEA-AEEA-Dap-C18 diacid])AQRAFVEWLLAQGPSSGAPPPS-NH2) | 0.012 nM |  | 0.011 nM |  | 
CC[C@H](C)[C@H](NC(=O)[C@H](CO)NC(=O)[C@H](Cc1ccc(O)cc1)NC(=O)[C@H](CC(=O)O)NC(=O)[C@H](CO)NC(=O)[C@@H](NC(=O)[C@H](Cc1ccccc1)NC(=O)[C@@H](NC(=O)CNC(=O)[C@H](CCC(=O)O)NC(=O)[C@@H](C)NC(=O)[C@@H](N)Cc1ccc(O)cc1)[C@@H](C)O)[C@@H](C)O)C(=O)N[C@@H](Cc1ccc(O)cc1)C(=O)N[C@@H](CC(C)C)C(=O)N[C@@H](CC(=O)O)C(=O)N[C@@H](CCCCN)C(=O)N[C@@H](CCCCNC(=O)COCCOCCNC(=O)COCCOCCNC(=O)CC[C@H](NC(=O)CCCCCCCCCCCCCCCCC(=O)O)C(=O)O)C(=O)N[C@@H](C)C(=O)N[C@@H](CCC(N)=O)C(=O)N[C@@H](CCCNC(=N)N)C(=O)N[C@@H](C)C(=O)N[C@@H](Cc1ccccc1)C(=O)N[C@H](C(=O)N[C@@H](CCC(=O)O)C(=O)N[C@@H](Cc1c[nH]c2ccccc12)C(=O)N[C@@H](CC(C)C)C(=O)N[C@@H](CC(C)C)C(=O)N[C@@H](C)C(=O)N[C@@H](CCC(N)=O)C(=O)NCC(=O)N1CCC[C@H]1C(=O)N[C@@H](CO)C(=O)N[C@@H](CO)C(=O)NCC(=O)N[C@@H](C)C(=O)N1CCC[C@H]1C(=O)N1CCC[C@H]1C(=O)N1CCC[C@H]1C(=O)N[C@@H](CO)C(N)=O)C(C)C [Compound 9] (H-Y[dA]EGTFTSDYSIYLDKK([AEEA-AEEA-γGlu-C18 diacid])AQRAFVEWLLAQGPSSGAPPPS-NH2) | 0.038 nM | 0.039 nM | 0.0088 nM | 0.009 nM | 0.009 nM
CC[C@H](C)[C@H](NC(=O)[C@H](CO)NC(=O)[C@H](Cc1ccc(O)cc1)NC(=O)[C@H](CC(=O)O)NC(=O)[C@H](CO)NC(=O)[C@@H](NC(=O)[C@H](Cc1ccccc1)NC(=O)[C@@H](NC(=O)CNC(=O)[C@H](CCC(=O)O)NC(=O)C(C)(C)NC(=O)[C@@H](N)Cc1ccc(O)cc1)[C@@H](C)O)[C@@H](C)O)C(=O)N[C@@H](Cc1ccc(O)cc1)C(=O)N[C@@H](CC(C)C)C(=O)N[C@@H](CCC(=O)O)C(=O)N[C@@H](CCCCN)C(=O)N[C@@H](CCCCNC(=O)COCCOCCNC(=O)COCCOCCNC(=O)CC[C@H](NC(=O)CCCCCCCCCCCCCCCCC(=O)O)C(=O)O)C(=O)N[C@@H](C)C(=O)N[C@@H](C)C(=O)N[C@@H](CCCCN)C(=O)N[C@@H](CCC(=O)O)C(=O)N[C@@H](Cc1ccccc1)C(=O)N[C@H](C(=O)N[C@@H](CCC(=O)O)C(=O)N[C@@H](Cc1c[nH]c2ccccc12)C(=O)N[C@@H](CC(C)C)C(=O)N[C@@H](CC(C)C)C(=O)N[C@@H](CO)C(=O)N[C@@H](C)C(=O)NCC(=O)N1CCC[C@H]1C(=O)N[C@@H](CO)C(=O)N[C@@H](CO)C(=O)NCC(=O)N[C@@H](C)C(=O)N1CCC[C@H]1C(=O)N1CCC[C@H]1C(=O)N1CCC[C@H]1C(=O)N[C@@H](CO)C(N)=O)C(C)C [Compound 10] (H-Y[Aib]EGTFTSDYSIYLEKK([AEEA-AEEA-γGlu-C18 diacid])AAKEFVEWLLSAGPSSGAPPPS-NH2) | 0.028 nM | 0.029 nM | 0.016 nM | 0.016 nM | 

Reference: patent publication US10093713B2, “GIP-GLP-1 dual agonist compounds and methods” (priority 2013, dated 2018)
